# Measured values from patent US9605013B2, “Derivatives of hemin with antibacterial and antiviral activity” (OBSCHESTVO S OGRANICHENNOI OTVETSTVENNOSTIYU …, priority 2011, dated 2017).
# System: Enterococcus faecalis BKM B-871
# Test: Antibacterial activity, serial dilutions in liquid MH medium
# Type: cell-based
# Conditions: for MIC: MH medium, 20 h, 37° C., 100% growth inhibition; for MBC: no colonies on agarized MH medium
# In short: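 Broth microdilution in Mueller-Hinton medium at 37 °C with stirring, using exponential-phase cultures seeded at 5×10^4 to 1×10^5 cells/mL with twofold serial compound dilutions. Growth inhibition read as A595 after 20 h, corrected for compound absorbance; MIC and MBC determined.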
Compound,MIC [µM],MBC [µM]
"6,7-bis-[(Diamide N^α-L-Arginyl)-L-glutamyl]-Protohemin (IX)",25,50
"C=CC1=C(C)c2cc3[n-]c(cc4[n-]c(cc5nc(cc1n2)C(C)=C5C=C)c(C)c4CCC(=O)N[C@@H](CCCNC(=N)N)C(N)=O)c(CCC(=O)N[C@@H](CCCNC(=N)N)C(N)=O)c3C.[Cl-].[Fe+3] [II, 6,7-bis-(Amide N^α-Arginyl)-Protohemin (IX)]",6.3,12.5
